# In US20150165000A1, “COMPOSITION FOR THERMOSTABILIZATION OF HUMAN SERUM ALBUMIN AND METHOD OF PREPARING THERMALLY STABILIZED HUMAN SERUM ALBUMIN USING THE SAME” (Ewha University - Industry Collaboration Foundation, priority 2012, published 2015):
# Tests used:
# human serum albumin [1] = target: T1, human serum albumin (Homo sapiens, UniProt P02768); assay: Thermal denaturation of human serum albumin solution: check of precipitation during heating; format: physicochemical
# T1 construct: the single supply source of human serum albumin is currently the blood of humans; purchased Sigma-Aldrich A3782
# Protocol: Thus, the present inventors estimated oleic acid affecting stability depending on the temperature. […] Specifically, while the temperature was maintained at 65° C., 70° C. and 75° C., whether the precipitation was formed due to denaturation of protein was checked at intervals of 30 min, 5 min and 3 min, respectively.
# Thermostabilizing effects were evaluated at 70° C. using other C18 fatty acids including stearic acid, linoleic acid, α-linolenic acid and γ-linolenic acid, as well as oleic acid, in the same manner as in Example 6.1. for testing of stability against denaturation due to thermal treatment using oleic acid.
# Thermostabilizing effects at 65° C. were evaluated using C16 fatty acids including palmitic acid and palmitoleic acid, as well as oleic acid as the C18 fatty acid, in the same manner as in Examples 6.1. and 6.2. for testing of stability against degeneration due to thermal treatment using various C18 fatty acids including oleic acid. The samples were warmed to 65° C. and observed at an interval of 5 min.
# Thermostabilizing effects at 65° C. were evaluated using EPA (eicosapentaenoic acid) and DHA (docosahexanoic acid) as C20 and C22 fatty acids, as well as oleic acid as the C18 fatty acid, in the same manner as in Examples 6.1. to 6.3. for testing of stability against denaturation due to thermal treatment using various C16 and C18 fatty acids.
# human serum albumin [2] = target: T1, human serum albumin; assay: Structural stability against thermal treatment: secondary structure composition from circular dichroism; format: physicochemical; settings: for structural stability (ratio of α-helix by circular dichroism), in words / structural stability (ratio of α-helix / circular dichroism spectrum), in words: albumin 1 mg/mL
# Protocol: The composition of the secondary structure of protein may be estimated using circular dichroism, and thus changes in structure of the thermally denatured protein may be measured.
# Measurement of circular dichroism was performed three times under conditions of a data pitch of 0.2 nm, a band width of 1.0 nm, a response time of 4 sec, and a scanning speed of 50 nm/min using a quartz cuvette having a path length of 0.1 cm by use of Jasco J-715 spectropolarimeter. The composition of the secondary structure was assayed from the measured circular dichroism values using SELCON3 program contained in the Dicroprot program.
# T1 sequence (P02768 25-609): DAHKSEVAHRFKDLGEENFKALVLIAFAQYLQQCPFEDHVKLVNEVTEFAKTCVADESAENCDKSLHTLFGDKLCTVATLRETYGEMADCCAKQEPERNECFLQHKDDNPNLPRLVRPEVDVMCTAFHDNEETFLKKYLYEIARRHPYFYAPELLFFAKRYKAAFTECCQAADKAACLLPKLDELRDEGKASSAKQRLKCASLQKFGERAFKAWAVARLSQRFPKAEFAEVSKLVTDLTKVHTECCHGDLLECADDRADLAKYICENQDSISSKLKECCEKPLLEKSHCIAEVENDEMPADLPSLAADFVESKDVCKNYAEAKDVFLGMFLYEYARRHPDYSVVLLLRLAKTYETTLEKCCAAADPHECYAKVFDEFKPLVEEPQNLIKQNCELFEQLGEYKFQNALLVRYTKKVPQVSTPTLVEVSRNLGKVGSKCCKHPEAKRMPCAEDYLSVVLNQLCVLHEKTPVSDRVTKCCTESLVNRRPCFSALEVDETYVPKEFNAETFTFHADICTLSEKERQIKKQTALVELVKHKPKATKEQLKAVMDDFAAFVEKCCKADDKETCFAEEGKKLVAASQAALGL
smiles,measurement,setting,value
"CC/C=C\C/C=C\C/C=C\C/C=C\C/C=C\C/C=C\CCC(=O)O [DHA, (4Z,7Z,10Z,13Z,16Z,19Z)-docosa-4,7,10,13,16,19-hexaenoic acid]",stability against denaturation due to thermal treatment compared to the human serum albumin control,"human serum albumin [1]; 65° C., albumin 50 mg/mL, Examples 6.3, 6.4",much higher
CCCCCCCC/C=C\CCCCCCCC(=O)O [oleic acid],"structural stability (ratio of α-helix by circular dichroism), in words",human serum albumin [2]; heated at 60° C. for 10 hr,maintained
same,"structural stability (ratio of α-helix / circular dichroism spectrum), in words",human serum albumin [2]; heated at 70° C. for 10 hr,maintained
same,"structural stability (circular dichroism spectrum), in words","human serum albumin [2]; heated at 70° C. for 10 hr, albumin 1 to 40 mg/mL, Example 8",stability thereof was maintained
same,"structural stability (ratio of α-helix by circular dichroism), in words",human serum albumin [2]; heated at 80° C. for 10 hr,deteriorated
same,time for which denaturation was not observed,"human serum albumin [1]; 60° C., albumin 50 mg/mL, fatty acid 1:1",≥ 10 h
same,time for which denaturation did not occur,"human serum albumin [1]; 65° C., albumin 50 mg/mL, fatty acid 1:1",about 6 hr
same,time after which precipitation began to form,"human serum albumin [1]; 65° C., albumin 50 mg/mL, Example 6.1",330 min
same,period of time maintained stably compared to the fatty acid-free human serum albumin solution,human serum albumin [1]; 70° C.,two times as long or more
same,time after which precipitation began to form,"human serum albumin [1]; 70° C., albumin 50 mg/mL, Example 6.1",30 min
same,difference between the control and the test group,"human serum albumin [1]; 75° C., albumin 50 mg/mL, Example 6.1",no difference
"CC/C=C\C/C=C\C/C=C\CCCCCCCC(=O)O [α-linolenic acid, all-cis-9,12,15-octadecatrienoic acid]","structural stability (ratio of α-helix / circular dichroism spectrum), in words",human serum albumin [2]; heated at 70° C. for 10 hr,maintained
CCCCC/C=C\C/C=C\C/C=C\CCCCC(=O)O [γ-linolenic acid],"structural stability (ratio of α-helix / circular dichroism spectrum), in words",human serum albumin [2]; heated at 70° C. for 10 hr,maintained
CCCCC/C=C\C/C=C\CCCCCCCC(=O)O [linoleic acid],"structural stability (ratio of α-helix / circular dichroism spectrum), in words",human serum albumin [2]; heated at 70° C. for 10 hr,maintained
"CCCCCCC=CCCCCCCCC(=O)O [palmitoleic acid, hexadec-9-enoic acid]","structural stability (ratio of α-helix / circular dichroism spectrum), in words",human serum albumin [2]; heated at 70° C. for 10 hr,maintained
